{"source": "patent US20250257034A1", "about": "“INDOLE DERIVATIVES AS SEROTONERGIC AGENTS USEFUL FOR THE TREATMENT OF DISORDERS RELATED THERETO” (priority 2023, published 2025)", "target": "T1, human 5-HT1A receptor (Homo sapiens, UniProt P08908)", "T1 sequence (P08908 1-422)": "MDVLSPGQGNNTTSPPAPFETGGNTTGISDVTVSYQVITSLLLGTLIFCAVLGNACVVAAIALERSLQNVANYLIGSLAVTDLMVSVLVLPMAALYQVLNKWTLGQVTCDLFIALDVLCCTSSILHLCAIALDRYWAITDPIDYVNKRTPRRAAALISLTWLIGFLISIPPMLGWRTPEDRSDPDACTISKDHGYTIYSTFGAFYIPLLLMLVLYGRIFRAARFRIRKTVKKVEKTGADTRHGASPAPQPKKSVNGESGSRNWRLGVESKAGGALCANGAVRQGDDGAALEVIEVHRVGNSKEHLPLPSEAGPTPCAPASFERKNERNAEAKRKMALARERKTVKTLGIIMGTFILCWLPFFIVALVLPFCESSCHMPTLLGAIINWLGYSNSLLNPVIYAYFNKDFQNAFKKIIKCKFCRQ", "assay": "Human 5-HT1A functional FLIPR assay (agonist mode)", "format": "cell-based", "set-up": "expressed in transfected cells; host or cells: HTR1A&Gα15-CHO", "procedure": "The potential excitatory effects of compounds targeting on 5-hydroxytryptamine receptor 1A (5-HT1A) under agonist mode was assessed.\nHTR1A&Gα15-CH0 cells were cultured in DMEM/F12 medium containing 10% dialyzed FBS, 1×penicillin-streptomycin and 600 μg/mL Hygromycin B. The cells were passaged about three times a week, maintained between ˜30% to ˜90% confluence.\n1. The cell culture medium (DMEM/F12 medium containing 10% dialyzed FBS, 1×penicillin-streptomycin and 600 μg/mL Hygromycin B), TrypLE™ Express and DPBS was warmed to R.T. in advance.\n2. The cell culture medium was removed from flask. Washed cells with DPBS.\n3. 1 mL TrypLE™ Express was added to the flask, mixed well by gentle shaking and cells were incubated at 37° C. for a few minutes.\n4. The cells were checked for morphological change under microscope, the digestion was stopped by adding 2 mL cell culture medium to the flask when most of cells turned to round.\n5. The cell suspension was transferred into a 15 mL centrifuge tube, and then centrifuged at 1,200 rpm for 5 minutes.\n6. The supernatant was removed. The cell pellets were resuspended with 2 mL cell culture medium.\n7. The cell density was counted using a cell counter.\n8. Cells were diluted to 4×10^5/mL with cell culture medium.\n9. 30 μL/well cell suspensions were added into a 384-well cell plate (the cell density was 12,000 cells/well).\n10. The cell plate was incubated overnight at 37° C., 5% (v/v) CO2.\n1. On the day of experiments, culture medium was removed from the cell plate.\n2. 10 μL of assay buffer (20 mM HEPES, in 1x HBSS, pH 7.4) was added to each well of the cell plate.\n3. 2×dye solution was prepared following the manufacturer's instruction of the FLIPR® Calcium 6 assay kit: • i. The dye was diluted with assay buffer. • ii. probenecid was added to the final concentration of 5 mM. • iii. Vortexed vigorously for I-2 minutes, adjust pH to 7.4.\n4. 10 μL of 2×dye solution was added to each well of the cell plate.\n5. The cell plate was placed on plate shaker, followed by shaking at 600 rpm for 2 minutes.\n6. The plate was incubated at 37° C. for 2 hours followed by an additional 15-minute incubation at 25° C.\n1. Serotonin was prepared to the concentration of 10 mM with DMSO, 3-folds serial dilutions were performed with DMSO.\n2. Prepared the test compound to the concentration of 10 mM with DMSO, preform 3-folds serial dilutions with DMSO.\n3. The compounds were added to a 384-well compound source plate.\n4. 90 nL/well of serial diluted compounds were transferred from source plate to a 384-well compound plate by using an Echo.\n5. 30 μL/well of assay buffer was added to the compound plate.\n6. The plate was mixed on-plate shaker for 2 minutes.\n1. After the cells incubated with dye solution, the cell plate, compound plate containing 3×compounds and F LIP R tips were placed into F LIP R.\n2. 10 μL of 3×compounds were transferred from the compound plate to the cell plate by F LIP R.\n3. The plate was read for 160 sec with 1 sec interval to obtain the data of agonist mode.\n1. The normalized fluorescence reading (RFU) was calculated as shown below, wherein Fmax and Fmin stand for maximum and minimum of calcium signal during defined time window:\n2. EC50 was calculated by fitting RFU against log of compound concentrations with Hill equation using XLfit.\nHTR1A&Gα15-C H0 cells were cultured in DMEM/F 12 medium containing 10% dialyzed FBS, 1x penicillin-streptomycin and 600 μg/mL Hygromycin B. The cells were passaged about three times a week, maintained between ˜30% to ˜90% confluence.\n1. The cell culture medium (DMEM/F 12 medium containing 10% dialyzed FBS, 1x penicillin-streptomycin and 600 μg/mL Hygromycin B), TrypLE™ Express and DPBS was warmed to R.T. in advance.\n7. The cell density was counted using cell counter.\n9. 30 μL/well cell suspensions were added into a 384-well cell plate (The cell density was 12,000 cells/well).\n3. 2×dye solution was prepared following the manufacture's instruction of the F LIP R® Calcium 6 assay kit: • i.", "note": "pEC50: −log10 of the molar value. Where two headings read alike, the source gives them in different places."}
{"smiles": "COc1ccc2[nH]cc(CCN3CC[C@@H](OC)C3)c2c1", "note": "[(R) I-66, (R)-5-methoxy-3-(2-(3-methoxypyrrolidin-1-yl)ethyl)-1H-indole]", "values": [{"measurement": "pEC50", "value": 6.01}, {"measurement": "RFU@10 μM", "setting": "RFU=Fmax−Fmin (Table 47)", "value": "3,690 RFU"}]}
{"smiles": "COc1ccc2[nH]cc(CCN3CC[C@@H](OC(F)F)C3)c2c1", "note": "[(R) I-67, (R)-3-(2-(3-(Difluoromethoxy)pyrrolidin-1-yl)ethyl)-5-methoxy-1H-indole]", "values": [{"measurement": "pEC50", "value": 5.80}, {"measurement": "RFU@10 μM", "setting": "RFU=Fmax−Fmin (Table 47)", "value": "3,988 RFU"}]}
{"smiles": "COc1ccc2[nH]cc(CCN3CC[C@H](OC(F)F)C3)c2c1", "note": "[(S) I-67, (S)-3-(2-(3-(Difluoromethoxy)pyrrolidin-1-yl)ethyl)-5-methoxy-1H-indole]", "values": [{"measurement": "pEC50", "value": 6.73}, {"measurement": "RFU@10 μM", "setting": "RFU=Fmax−Fmin (Table 47)", "value": "3,930 RFU"}]}
{"smiles": "[2H]C([2H])([2H])N(CCc1c[nH]c2ccc(SC)cc12)C([2H])([2H])[2H]", "note": "[Compound I-1, N,N-Bis(methyl-d3)-2-(5-(methylthio)-1H-indol-3-yl)ethan-1-amine]", "values": [{"measurement": "pEC50", "value": 6.03}, {"measurement": "RFU@10 μM", "setting": "RFU=Fmax−Fmin (Table 18)", "value": "2,858 RFU"}]}
{"smiles": "CCN(CC)CCc1c[nH]c2ccc(SC)cc12", "note": "[Compound I-12, N,N-Diethyl-2-(5-(methylthio)-1H-indol-3-yl)ethan-1-amine]", "values": [{"measurement": "pEC50", "value": 6.17}, {"measurement": "RFU@10 μM", "setting": "RFU=Fmax−Fmin (Table 18)", "value": "3,735 RFU"}]}
{"smiles": "CCN(C)CCc1c[nH]c2ccc(SC)cc12", "note": "[Compound I-13, N-Ethyl-N-methyl-2-(5-(methylthio)-1H-indol-3-yl)ethan-1-amine]", "values": [{"measurement": "pEC50", "value": 6.16}, {"measurement": "RFU@10 μM", "setting": "RFU=Fmax−Fmin (Table 18)", "value": "4,279 RFU"}]}
{"smiles": "CSc1ccc2[nH]cc(CCN(C(C)C)C(C)C)c2c1", "note": "[Compound I-17, N-Isopropyl-N-(2-(5-(methylthio)-1H-indol-3-yl)ethyl)propan-2-amine]", "values": [{"measurement": "pEC50", "value": 5.47}, {"measurement": "RFU@10 μM", "setting": "RFU=Fmax−Fmin (Table 18)", "value": "2,289 RFU"}]}
{"smiles": "CSc1ccc2[nH]cc(CCN(C)C(C)C)c2c1", "note": "[Compound I-19, N-Methyl-N-(2-(5-(methylthio)-1H-indol-3-yl)ethyl)propan-2-amine]", "values": [{"measurement": "pEC50", "value": 5.41}, {"measurement": "RFU@10 μM", "setting": "RFU=Fmax−Fmin (Table 18)", "value": "2,161 RFU"}]}
{"smiles": "COc1ccc2[nH]cc(CCN(C)CCOC(F)F)c2c1", "note": "[Compound I-71, 2-(Difluoromethoxy)-N-(2-(5-methoxy-1H-indol-3-yl)ethyl)-N-methylethan-1-amine]", "values": [{"measurement": "RFU@10 μM", "setting": "RFU=Fmax−Fmin (Table 47)", "value": "3,087 RFU"}, {"measurement": "pEC50", "setting": "FLIPR calcium, agonist mode, HTR1A&Gα15-CHO cells (Table 47), read-out: h5-HT1A, EC50", "value": 5.73}]}
{"smiles": "CN(C)CCc1c[nH]c2ccc(OCCOC(F)F)cc12", "note": "[Compound I-128, 2-(5-(2-(Difluoromethoxy)ethoxy)-1H-indol-3-yl)-N,N-dimethylethan-1-amine]", "values": [{"measurement": "RFU@10 μM", "setting": "RFU=Fmax−Fmin (Table 47)", "value": 314, "unit": "RFU"}]}
{"smiles": "CN(CCOC(F)F)CCc1c[nH]c2ccccc12", "note": "[Compound I-130, N-(2-(1H-Indol-3-yl)ethyl)-2-(difluoromethoxy)-N-methylethan-1-amine]", "values": [{"measurement": "RFU@10 μM", "setting": "RFU=Fmax−Fmin (Table 47)", "value": 163, "unit": "RFU"}]}
{"smiles": "CN(C)CCc1c[nH]c2ccccc12", "note": "[DMT]", "values": [{"measurement": "RFU@10 μM", "setting": "RFU=Fmax−Fmin (Table 18)", "value": 204, "unit": "RFU"}, {"measurement": "RFU@10 μM", "setting": "RFU=Fmax−Fmin (Table 47)", "value": 204, "unit": "RFU"}]}
